Key:
[1] = Drug uptake in tumor of nude mouse xenografted with human HT-29 cells at 50 mg/kg, po after 48 hrs; format: ADME, organism-based, Neoplasm; set-up: dose 50 mg/kg, route oral; details: read-out: Drug uptake
[2] = Toxicity in po dosed nude mouse administered qd for 3 days in a week; format: organism-based; details: in vivo
[3] = Drug uptake in tumor of nude mouse xenografted with human HT-29 cells at 6.25 mg/kg, po after 72 hrs; format: ADME, organism-based, Neoplasm; set-up: dose 6.25 mg/kg, route oral; details: read-out: Drug uptake
[4] = Volume of distribution at steady state in nude NCR mouse at 2 mg/kg, iv; format: ADME, organism-based; set-up: dose 2 mg/kg, route intravenous; details: in vivo, read-out: Vdss
[5] = Cmax in Sprague-Dawley rat at 5 mg/kg, po; format: ADME, organism-based; set-up: dose 5 mg/kg, route oral; details: in vivo
[6] = Plasma clearance in Sprague-Dawley rat at 1 mg/kg, iv; format: ADME, organism-based; set-up: dose 1 mg/kg, route intravenous
[7] = Drug uptake in tumor of nude mouse xenografted with human HT-29 cells at 25 mg/kg, po after 48 hrs; format: ADME, organism-based, Neoplasm; set-up: dose 25 mg/kg, route oral; details: read-out: Drug uptake
[8] = Drug uptake in tumor of nude mouse xenografted with human HT-29 cells at 12.5 mg/kg, po after 24 hrs; format: ADME, organism-based, Neoplasm; set-up: dose 12.5 mg/kg, route oral; details: read-out: Drug uptake
[9] = Toxicity in po dosed nude mouse administered once daily; format: organism-based; details: in vivo
[10] = Drug uptake in tumor of nude mouse xenografted with human HT-29 cells at 12.5 mg/kg, po after 48 hrs; format: ADME, organism-based, Neoplasm; set-up: dose 12.5 mg/kg, route oral; details: read-out: Drug uptake
[11] = Drug uptake in tumor of nude mouse xenografted with human HT-29 cells at 25 mg/kg, po after 24 hrs; format: ADME, organism-based, Neoplasm; set-up: dose 25 mg/kg, route oral; details: read-out: Drug uptake
[12] = Cmax in nude NCR mouse at 12.5 mg/kg, po; format: ADME, organism-based; set-up: dose 12.5 mg/kg, route oral; details: in vivo
[13] = Toxicity in po dosed nude mouse administered qd for 1 day in a week; format: organism-based; details: in vivo
[14] = Drug uptake in tumor of nude mouse xenografted with human HT-29 cells at 25 mg/kg, po after 72 hrs; format: ADME, organism-based, Neoplasm; set-up: dose 25 mg/kg, route oral; details: read-out: Drug uptake
[15] = Drug uptake in tumor of nude mouse xenografted with human HT-29 cells at 6.25 mg/kg, po after 48 hrs; format: ADME, organism-based, Neoplasm; set-up: dose 6.25 mg/kg, route oral; details: read-out: Drug uptake
[16] = Tmax in Sprague-Dawley rat at 5 mg/kg, po; format: ADME, organism-based; set-up: dose 5 mg/kg, route oral; details: in vivo
[17] = Oral bioavailability in nude NCR mouse at 12.5 mg/kg; format: ADME, organism-based; details: in vivo
[18] = Tmax in nude NCR mouse at 12.5 mg/kg, po; format: ADME, organism-based; set-up: dose 12.5 mg/kg, route oral; details: in vivo
[19] = Half life in nude NCR mouse at 2 mg/kg, iv; format: ADME, organism-based; set-up: dose 2 mg/kg, route intravenous; details: in vivo
[20] = Drug uptake in tumor of nude mouse xenografted with human HT-29 cells at 12.5 mg/kg, po after 72 hrs; format: ADME, organism-based, Neoplasm; set-up: dose 12.5 mg/kg, route oral; details: read-out: Drug uptake
[21] = Oral bioavailability in Sprague-Dawley rat at 5 mg/kg; format: ADME, organism-based; details: in vivo
[22] = Drug uptake in tumor of nude mouse xenografted with human HT-29 cells at 6.25 mg/kg, po after 24 hrs; format: ADME, organism-based, Neoplasm; set-up: dose 6.25 mg/kg, route oral; details: read-out: Drug uptake
[23] = Plasma clearance in nude NCR mouse at 2 mg/kg, iv; format: ADME, organism-based; set-up: dose 2 mg/kg, route intravenous
[24] = Volume of distribution at steady state in Sprague-Dawley rat at 1 mg/kg, iv; format: ADME, organism-based; set-up: dose 1 mg/kg, route intravenous; details: in vivo, read-out: Vdss
[25] = Drug uptake in tumor of nude mouse xenografted with human HT-29 cells at 50 mg/kg, po after 24 hrs; format: ADME, organism-based, Neoplasm; set-up: dose 50 mg/kg, route oral; details: read-out: Drug uptake
[26] = Drug uptake in tumor of nude mouse xenografted with human HT-29 cells at 50 mg/kg, po after 72 hrs; format: ADME, organism-based, Neoplasm; set-up: dose 50 mg/kg, route oral; details: read-out: Drug uptake
[27] = Half life in Sprague-Dawley rat at 1 mg/kg, iv; format: ADME, organism-based; set-up: dose 1 mg/kg, route intravenous; details: in vivo

SMILES: Cc1ncc(CCCN(C)C)cc1Nc1ncc2c(n1)-c1ccc(C(F)(F)F)cc1NC(=S)C2
- concentration at 48 h [1]: 476 nM
- MTD at 72 h [2]: 25 mg/kg
- concentration at 72 h [3]: 98 nM
- Vd [4]: 6.2 L/kg
- Cmax [5]: 335 nM
- clearance [6]: 38.3 mL/min/kg
- concentration at 48 h [7]: 369 nM
- concentration at 24 h [8]: 339 nM
- MTD [9]: 12.5 mg/kg
- concentration at 48 h [10]: 353 nM
- concentration at 24 h [11]: 920 nM
- Cmax [12]: 720 nM
- MTD at 24 h [13]: 50 mg/kg
- concentration at 72 h [14]: 163 nM
- concentration at 48 h [15]: 121 nM
- Tmax [16]: 4 h
- bioavailability [17]: 45%
- Tmax [18]: 4 h
- half-life [19]: 3.4 h
- concentration at 72 h [20]: 139 nM
- bioavailability [21]: 72%
- concentration at 24 h [22]: 239 nM
- clearance [23]: 41.7 mL/min/kg
- Vd [24]: 10.2 L/kg
- concentration at 24 h [25]: 1470 nM
- concentration at 72 h [26]: 376 nM
- half-life [27]: 4.7 h

SMILES: Cc1ncc(CCCN(C)C)cc1Nc1ncc2c(n1)-c1ccc(Cl)cc1NC(=S)C2
- concentration at 48 h [1]: 332 nM
- concentration at 24 h [25]: 1080 nM
- concentration at 72 h [26]: 60.3 nM

Source: ChEMBL document CHEMBL1944579, “Discovery of a potent and orally bioavailable benzolactam-derived inhibitor of Polo-like kinase 1 (MLN0905)” (J Med Chem, 2012)
